A word on the Ki: it is a dissociation constant, usually derived from enzyme kinetics or from competition with a known ligand.

Drawing on patent US7312227B2, “Compositions useful as inhibitors of JAK and other protein kinases” (Vertex Pharmaceuticals Incorporated, priority 2002, dated 2007), this text covers Ki for 22 molecules.

Assay type in all cases: biochemical
The target in one test is T1, JAK3 (Homo sapiens, UniProt P52333).
T1 sequence (P52333 1-1124): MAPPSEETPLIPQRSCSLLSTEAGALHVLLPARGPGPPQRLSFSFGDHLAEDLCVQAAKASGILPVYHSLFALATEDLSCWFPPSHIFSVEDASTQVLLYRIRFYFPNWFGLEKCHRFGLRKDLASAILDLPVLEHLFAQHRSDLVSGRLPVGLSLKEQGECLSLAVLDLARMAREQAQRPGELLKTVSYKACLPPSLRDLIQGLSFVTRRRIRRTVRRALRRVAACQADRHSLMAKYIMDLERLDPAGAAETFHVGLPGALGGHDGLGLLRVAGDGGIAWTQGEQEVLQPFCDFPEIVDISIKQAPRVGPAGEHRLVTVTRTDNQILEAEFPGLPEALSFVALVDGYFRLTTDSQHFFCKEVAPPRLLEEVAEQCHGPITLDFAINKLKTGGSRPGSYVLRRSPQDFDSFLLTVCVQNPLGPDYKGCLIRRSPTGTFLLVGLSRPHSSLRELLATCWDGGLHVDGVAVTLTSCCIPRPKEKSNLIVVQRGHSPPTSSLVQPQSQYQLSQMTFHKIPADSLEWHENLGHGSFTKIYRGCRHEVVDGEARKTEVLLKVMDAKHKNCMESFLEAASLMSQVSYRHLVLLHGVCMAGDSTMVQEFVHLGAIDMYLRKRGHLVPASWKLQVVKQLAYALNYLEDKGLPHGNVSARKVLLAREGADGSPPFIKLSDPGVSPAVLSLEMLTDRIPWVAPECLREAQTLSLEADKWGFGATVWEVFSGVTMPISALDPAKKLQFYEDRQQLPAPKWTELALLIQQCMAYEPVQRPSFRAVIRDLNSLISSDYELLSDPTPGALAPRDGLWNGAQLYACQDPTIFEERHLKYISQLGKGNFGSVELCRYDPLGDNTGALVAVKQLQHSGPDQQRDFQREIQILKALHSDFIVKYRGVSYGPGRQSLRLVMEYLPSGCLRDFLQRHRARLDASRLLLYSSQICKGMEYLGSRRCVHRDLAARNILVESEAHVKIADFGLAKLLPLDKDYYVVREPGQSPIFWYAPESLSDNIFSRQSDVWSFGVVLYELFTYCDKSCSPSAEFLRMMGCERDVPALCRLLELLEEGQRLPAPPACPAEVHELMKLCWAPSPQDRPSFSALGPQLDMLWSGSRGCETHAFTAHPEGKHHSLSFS
In words: JAK3 inhibition assay. Conditions: 2 μM ATP, Poly (Glu, Ala, Tyr) 6:3:1 coated plates, 60 minutes at 30° C. How it is done:
Compound inhibition of JAK was assayed by the method described by G. R. Brown, et al, Bioorg. Med. Chem. Lett. 2000, vol. 10, pp 575-579 in the following manner. Into Maxisorb plates, previously coated at 4° C. with Poly (Glu, Ala, Tyr) 6:3:1 then washed with phosphate buffered saline 0.05% and Tween (PBST), was added 2 μM ATP, 5 mM MgCl2, and a solution of compound in DMSO. The reaction was started with JAK enzyme and the plates incubated for 60 minutes at 30° C. The plates were then washed with PBST, 100 μL HRP-Conjugated 4G10 antibody was added, and the plate incubated for 90 minutes at 30° C. The plate was again washed with PBST, 100 μL TMB solution is added, and the plates were incubated for another 30 minutes at 30° C. Sulfuric acid (100 μL of 1M) was added to stop the reaction and the plate is read at 450 nm, and Ki values were determined.

For the next test, the target named is CDK-2/Cyclin A (Homo sapiens, UniProt P24941). In words: CDK2 inhibition assay (coupled enzyme assay). Conditions: 100 μM ATP, 100 μM peptide, 25 nM CDK-2/Cyclin A, 30° C. As for the experimental part: Compounds were screened for their ability to inhibit CDK-2/Cyclin A using a standard coupled enzyme assay (Fox et al (1998) Protein Sci 7, 2249). Reactions were carried out in 100 mM HEPES pH 7.5, 10 mM MgCl2, 25 mM NaCl, 1 mM DTT and 1.5% DMSO. Final substrate concentrations in the assay were 100 μM ATP (Sigma chemicals) and 100 μM peptide (American Peptide, Sunnyvale, Calif.). Assays were carried out at 30° C. and 25 nM CDK-2/Cyclin A. Final concentrations of the components of the coupled enzyme system were 2.5 mM phosphoenolpyruvate, 350 μM NADH, 30 μg/ml pyruvate kinase and 10 μg/ml lactate dehydrogenase.
An assay stock buffer solution was prepared containing all of the reagents listed above, with the exception of CDK-2/Cyclin A, DTT and the test compound of interest. 56 μl of the test reaction was placed in a 384 well plate followed by addition of 1 μl of 2 mM DMSO stock containing the test compound (final compound concentration 30 μM). The plate was preincubated for ˜10 minutes at 30° C. and the reaction initiated by addition of 10 μl of enzyme (final concentration 25 nM). Rates of reaction were obtained using a BioRad Ultramark plate reader (Hercules, Calif.) over a 5 minute read time at 30° C. and Ki values were determined.

The target in another test is JNK3 (Homo sapiens, UniProt P53779). In words: JNK3 inhibition assay (spectrophotometric coupled-enzyme assay). The settings on record: 10 nM activated JNK3, 10 μM ATP, 200 μM EGF receptor peptide, 30° C. As for the experimental part:
Compounds were assayed for the inhibition of JNK3 by a spectrophotometric coupled-enzyme assay. In this assay, a fixed concentration of activated JNK3 (10 nM) was incubated with various concentrations of a potential inhibitor dissolved in DMSO for 10 minutes at 30° C. in a buffer containing 0.1 M HEPES buffer, pH 7.5, containing 10 mM MgCl2, 2.5 mM phosphoenolpyruvate, 200 μM NADH, 150 μg/mL pyruvate kinase, 50 μg/mL lactate dehydrogenase, and 200 μM EGF receptor peptide. The EGF receptor is a phosphoryl acceptor in the JNK3-catalyzed kinase reaction. The reaction was initiated by the addition of 10 μM ATP and the assay plate is inserted into the spectrophotometer's assay plate compartment that was maintained at 30° C. The decrease of absorbance at 340 nm was monitored as a function of time. The rate data as a function of inhibitor concentration was fitted to competitive inhibition kinetic model to determine the Ki.

The structures appear in SMILES notation.

Sequence of JNK3 (P53779 whole entry): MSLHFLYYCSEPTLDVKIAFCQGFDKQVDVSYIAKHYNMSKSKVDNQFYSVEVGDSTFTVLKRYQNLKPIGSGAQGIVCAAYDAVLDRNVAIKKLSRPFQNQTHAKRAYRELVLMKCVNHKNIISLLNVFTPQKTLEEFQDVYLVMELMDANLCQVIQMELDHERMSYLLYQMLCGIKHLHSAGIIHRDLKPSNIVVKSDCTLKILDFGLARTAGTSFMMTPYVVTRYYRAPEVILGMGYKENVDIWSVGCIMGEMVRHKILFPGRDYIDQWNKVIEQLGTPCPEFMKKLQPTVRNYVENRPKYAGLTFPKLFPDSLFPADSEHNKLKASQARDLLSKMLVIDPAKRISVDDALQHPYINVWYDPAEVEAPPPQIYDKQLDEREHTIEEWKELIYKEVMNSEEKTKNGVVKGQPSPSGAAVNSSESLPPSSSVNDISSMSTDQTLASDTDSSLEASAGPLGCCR

Molecule `NS(=O)(=O)c1cccc(Nc2nccc(-c3cccc(NC(=O)c4ccco4)c3)n2)c1` [IV-A(i)-1] gave an inhibitory constant (Ki) at JAK3 not above 1000 nM. At JAK3, `COc1cccc(Nc2nccc(-c3cccc(N(C)C(=O)c4ccco4)c3)n2)c1` [IV-A(i)-2] yielded a Ki not above 1000 nM. On JAK3, `O=C(Nc1cccc(-c2ccnc(Nc3cccc(O)c3)n2)c1)c1ccco1` [IV-A(i)-4] came in with a Ki not above 1000 nM. In turn, `Nc1cccc(Nc2nccc(-c3cccc(NC(=O)c4ccccn4)c3)n2)c1` [IV-A(i)-5] had a Ki at JAK3 not above 1000 nM. Still for that read-out and setting: the result for `Nc1cccc(Nc2nccc(-c3cccc(NC(=O)c4cccs4)c3)n2)c1` [IV-A(i)-6] reads not above 1000 nM.

`NS(=O)(=O)c1cccc(Nc2nccc(-c3ccc(NC(=O)COc4ccccc4)cc3)n2)c1` [IV-B(i)-1] registered a Ki on JAK3 not above 1000 nM. Consider `Nc1cccc(Nc2nccc(-c3ccc(NC(=O)c4cccs4)cc3)n2)c1` [IV-B(i)-2], for which the Ki on CDK-2/Cyclin A, on JNK3 and at JAK3 was not above 1000 nM throughout. In turn, `Nc1cccc(Nc2nccc(-c3ccc(NC(=O)COc4ccccc4)cc3)n2)c1` [IV-B(i)-3] gave an inhibition constant Ki at JAK3 not above 1000 nM. Regarding `Nc1cccc(Nc2nccc(-c3ccc(NC(=O)c4ccco4)cc3)n2)c1` [IV-B(i)-4], the Ki on JAK3 was not above 1000 nM. The same measure, in the same setting: next, `Nc1cccc(Nc2nccc(-c3ccc(NC(=O)CN4CCOCC4)cc3)n2)c1` [IV-B(i)-5]: not above 1000 nM; `Nc1cccc(Nc2nccc(-c3ccc(NC(=O)CN4CCCC(CO)C4)cc3)n2)c1` (centres unmarked) [IV-B(i)-6]: not above 1000 nM. The molecule `Nc1cccc(Nc2nccc(-c3ccc(NC(=O)CN4CCC(CO)CC4)cc3)n2)c1` [IV-B(i)-7] showed a Ki at JAK3 not above 1000 nM.

Consider `Nc1cccc(Nc2nccc(-c3ccc(NC(=O)CN4CCC(O)CC4)cc3)n2)c1` [IV-B(i)-8], for which the Ki on JAK3 is not above 1000 nM. As for `Nc1cccc(Nc2nccc(-c3ccc(NC(=O)CN4CCCC4CO)cc3)n2)c1` (centres unmarked) [IV-B(i)-9], on JAK3, the inhibitory constant (Ki) was not above 1000 nM. Take `O=C(Nc1ccc(-c2ccnc(Nc3cccc(O)c3)n2)cc1)c1cccs1` [IV-B(i)-10]: the inhibition constant (Ki) at JAK3 was not above 1000 nM. For `O=C(COc1ccccc1)Nc1ccc(-c2ccnc(Nc3cccc(O)c3)n2)cc1` [IV-B(i)-11], the Ki on CDK-2/Cyclin A, at JNK3 and at JAK3 was not above 1000 nM in each case. Turning to `Cc1ccc(-c2ccnc(Nc3ccccc3)n2)cc1C(=O)Nc1ccccc1` [IV-C(i)-2], the Ki on CDK-2/Cyclin A is not above 1000 nM. Regarding `Cc1ccc(-c2ccnc(Nc3ccccc3)n2)cc1C(=O)NC1CCCCC1` [IV-C(i)-3], the Ki at CDK-2/Cyclin A was not above 1000 nM. On CDK-2/Cyclin A, `Cc1ccc(-c2ccnc(Nc3ccccc3)n2)cc1C(=O)NCc1ccccc1` [IV-C(i)-4] registered a Ki not above 1000 nM.

On JAK3, `O=C(NCC1CCCO1)c1cccc(-c2ccnc(Nc3ccccc3)n2)c1` (centres unmarked) [IV-C(i)-15] yielded a Ki not above 1000 nM. In the case of `O=C(NCc1ccccc1)c1ccc(-c2ccnc(Nc3ccccc3)n2)cc1` [IV-D(i)-2], at JAK3, the Ki was not above 1000 nM. For `O=C(NC1CCCCC1)c1ccc(-c2ccnc(Nc3ccccc3)n2)cc1` [IV-D(i)-4], the Ki on CDK-2/Cyclin A was not above 1000 nM.
